Experimental data: ChEMBL document CHEMBL5724806, “Unraveling interindividual differences and functional consequences of gut microbial metabolism of immunosuppressants” (2024)

How the values were obtained:
Format in all cases: ADME
[1] = (§1) The drug is tested on the gut metagenome community of A-06 with ENA study accession number: PRJEB31790 for biotransformation under microaerobic condition. The drug concentrations were measured over 7 timepoints collected between 0 and 12 hours of incubation by liquid-chromatography-coupled mass spectrometry (LC–MS); set-up: dose 5 uM, timepoint 0, 0.75, 1.5, 3, 6, 9, 12 hours; conditions: 5 µM
[2] = The drug is tested on Lactobacillus ruminis strain: ATCC25644 for biotransformation under anaerobic condition. The drug concentrations were measured over 6 timepoints collected between 0 and 12 hours of incubation by liquid-chromatography-coupled mass spectrometry (LC–MS); set-up: dose 5 uM, timepoint 0, 1.5, 3, 6, 9, 12 hours; conditions: ligilactobacillus ruminis, 5 µM
[3] = The drug is tested on Streptococcus sanguinis strain: DSM20567 for biotransformation under microaerobic condition. The drug concentrations were measured over 6 timepoints collected between 0 and 12 hours of incubation by liquid-chromatography-coupled mass spectrometry (LC–MS); set-up: dose 5 uM, timepoint 0, 1.5, 3, 6, 9, 12 hours; conditions: 5 µM
[4] = The drug is tested on Bacteroides ovatus strain: ATCC 8483 for biotransformation under anaerobic condition. The drug concentrations were measured over 6 timepoints collected between 0 and 12 hours of incubation by liquid-chromatography-coupled mass spectrometry (LC–MS); set-up: dose 5 uM, timepoint 0, 1.5, 3, 6, 9, 12 hours; conditions: 5 µM
[5] = The drug is tested on Lactobacillus reuteri strain: DSM20016 for biotransformation under microaerobic condition. The drug concentrations were measured over 6 timepoints collected between 0 and 12 hours of incubation by liquid-chromatography-coupled mass spectrometry (LC–MS); set-up: dose 5 uM, timepoint 0, 1.5, 3, 6, 9, 12 hours; conditions: limosilactobacillus reuteri, 5 µM
[6] = The drug is tested on Bacteroides uniformis strain: DSM6597 for biotransformation under anaerobic condition. The drug concentrations were measured over 6 timepoints collected between 0 and 12 hours of incubation by liquid-chromatography-coupled mass spectrometry (LC–MS); set-up: dose 5 uM, timepoint 0, 1.5, 3, 6, 9, 12 hours; conditions: 5 µM
[7] = The drug is tested on Bacteroides caccae strain: DSM19024 for biotransformation under anaerobic condition. The drug concentrations were measured over 6 timepoints collected between 0 and 12 hours of incubation by liquid-chromatography-coupled mass spectrometry (LC–MS); set-up: dose 5 uM, timepoint 0, 1.5, 3, 6, 9, 12 hours; conditions: 5 µM
[8] = as §1, with “P-04” for “A-06”, “anaerobic” for “microaerobic”; set-up: dose 5 uM, timepoint 0, 0.75, 1.5, 3, 6, 9, 12 hours; conditions: 5 µM
[9] = as §1, with “A-05” for “A-06”; set-up: dose 5 uM, timepoint 0, 0.75, 1.5, 3, 6, 9, 12 hours; conditions: 5 µM
[10] = The drug is tested on Lactobacillus fermentum strain: DSM20052 for biotransformation under microaerobic condition. The drug concentrations were measured over 6 timepoints collected between 0 and 12 hours of incubation by liquid-chromatography-coupled mass spectrometry (LC–MS); set-up: dose 5 uM, timepoint 0, 1.5, 3, 6, 9, 12 hours; conditions: limosilactobacillus fermentum, 5 µM
[11] = as §1, with “A-08” for “A-06”, “anaerobic” for “microaerobic”; set-up: dose 5 uM, timepoint 0, 0.75, 1.5, 3, 6, 9, 12 hours; conditions: 5 µM
[12] = as §1, with “A-09” for “A-06”, “anaerobic” for “microaerobic”; set-up: dose 5 uM, timepoint 0, 0.75, 1.5, 3, 6, 9, 12 hours; conditions: 5 µM
[13] = The drug is tested on Bacteroides fragilis strain: DSM2151 for biotransformation under anaerobic condition. The drug concentrations were measured over 6 timepoints collected between 0 and 12 hours of incubation by liquid-chromatography-coupled mass spectrometry (LC–MS); set-up: dose 5 uM, timepoint 0, 1.5, 3, 6, 9, 12 hours; conditions: 5 µM
[14] = as §1, with “A-05” for “A-06”, “anaerobic” for “microaerobic”; set-up: dose 5 uM, timepoint 0, 0.75, 1.5, 3, 6, 9, 12 hours; conditions: 5 µM
[15] = as §1, with “A-07” for “A-06”, “anaerobic” for “microaerobic”; set-up: dose 5 uM, timepoint 0, 0.75, 1.5, 3, 6, 9, 12 hours; conditions: 5 µM
[16] = The drug is tested on Blautia hansenii strain: DSM20583 for biotransformation under anaerobic condition. The drug concentrations were measured over 6 timepoints collected between 0 and 12 hours of incubation by liquid-chromatography-coupled mass spectrometry (LC–MS); set-up: dose 5 uM, timepoint 0, 1.5, 3, 6, 9, 12 hours; conditions: 5 µM
[17] = The drug is tested on Streptococcus anginosus strain: DSM20563 for biotransformation under microaerobic condition. The drug concentrations were measured over 6 timepoints collected between 0 and 12 hours of incubation by liquid-chromatography-coupled mass spectrometry (LC–MS); set-up: dose 5 uM, timepoint 0, 1.5, 3, 6, 9, 12 hours; conditions: 5 µM
[18] = The drug is tested on Actinomyces naeslundi strain: DSM43013 for biotransformation under microaerobic condition. The drug concentrations were measured over 6 timepoints collected between 0 and 12 hours of incubation by liquid-chromatography-coupled mass spectrometry (LC–MS); set-up: dose 5 uM, timepoint 0, 1.5, 3, 6, 9, 12 hours; conditions: actinomyces naeslundii, 5 µM
[19] = The drug is tested on Clostridium scindens strain: DSM5676 for biotransformation under anaerobic condition. The drug concentrations were measured over 6 timepoints collected between 0 and 12 hours of incubation by liquid-chromatography-coupled mass spectrometry (LC–MS); set-up: dose 5 uM, timepoint 0, 1.5, 3, 6, 9, 12 hours; conditions: 5 µM
[20] = as §1, with “P-02” for “A-06”; set-up: dose 5 uM, timepoint 0, 0.75, 1.5, 3, 6, 9, 12 hours; conditions: 5 µM
[21] = The drug is tested on Capnocytophaga ochracea strain: DSM7271 for biotransformation under microaerobic condition. The drug concentrations were measured over 6 timepoints collected between 0 and 12 hours of incubation by liquid-chromatography-coupled mass spectrometry (LC–MS); set-up: dose 5 uM, timepoint 0, 1.5, 3, 6, 9, 12 hours; conditions: 5 µM
[22] = The drug is tested on Eubacterium rectale strain: DSM17629 for biotransformation under anaerobic condition. The drug concentrations were measured over 6 timepoints collected between 0 and 12 hours of incubation by liquid-chromatography-coupled mass spectrometry (LC–MS); set-up: dose 5 uM, timepoint 0, 1.5, 3, 6, 9, 12 hours; conditions: agathobacter rectalis, 5 µM
[23] = as §1, with “A-01” for “A-06”; set-up: dose 5 uM, timepoint 0, 0.75, 1.5, 3, 6, 9, 12 hours; conditions: 5 µM
[24] = The drug is tested on Collinsella aerofaciens strain: DSM3979 for biotransformation under anaerobic condition. The drug concentrations were measured over 6 timepoints collected between 0 and 12 hours of incubation by liquid-chromatography-coupled mass spectrometry (LC–MS); set-up: dose 5 uM, timepoint 0, 1.5, 3, 6, 9, 12 hours; conditions: 5 µM
[25] = as §1, with “A-01” for “A-06”, “anaerobic” for “microaerobic”; set-up: dose 5 uM, timepoint 0, 0.75, 1.5, 3, 6, 9, 12 hours; conditions: 5 µM
[26] = The drug is tested on Alloscardovia omnicolens strain: DSM21503 for biotransformation under microaerobic condition. The drug concentrations were measured over 6 timepoints collected between 0 and 12 hours of incubation by liquid-chromatography-coupled mass spectrometry (LC–MS); set-up: dose 5 uM, timepoint 0, 1.5, 3, 6, 9, 12 hours; conditions: 5 µM
[27] = The drug is tested on Enterococcus faecalis strain: ATCC29212 for biotransformation under microaerobic condition. The drug concentrations were measured over 6 timepoints collected between 0 and 12 hours of incubation by liquid-chromatography-coupled mass spectrometry (LC–MS); set-up: dose 5 uM, timepoint 0, 1.5, 3, 6, 9, 12 hours; conditions: 5 µM
[28] = as §1, with “A-03” for “A-06”; set-up: dose 5 uM, timepoint 0, 0.75, 1.5, 3, 6, 9, 12 hours; conditions: 5 µM
[29] = The drug is tested on Lactobacillus fermentum strain: DSM20052 for biotransformation under anaerobic condition. The drug concentrations were measured over 6 timepoints collected between 0 and 12 hours of incubation by liquid-chromatography-coupled mass spectrometry (LC–MS); set-up: dose 5 uM, timepoint 0, 1.5, 3, 6, 9, 12 hours; conditions: limosilactobacillus fermentum, 5 µM
[30] = The drug is tested on Gemella haemolysans strain: DSM107751 for biotransformation under microaerobic condition. The drug concentrations were measured over 6 timepoints collected between 0 and 12 hours of incubation by liquid-chromatography-coupled mass spectrometry (LC–MS); set-up: dose 5 uM, timepoint 0, 1.5, 3, 6, 9, 12 hours; conditions: 5 µM

Compound | Bacterial Biotransformation [1] | Bacterial Biotransformation [2] | Bacterial Biotransformation [3] | Bacterial Biotransformation [4] | Bacterial Biotransformation [5] | Bacterial Biotransformation [6] | Bacterial Biotransformation [7] | Bacterial Biotransformation [8] | Bacterial Biotransformation [9] | Bacterial Biotransformation [10] | Bacterial Biotransformation [11] | Bacterial Biotransformation [12] | Bacterial Biotransformation [13] | Bacterial Biotransformation [14] | Bacterial Biotransformation [15] | Bacterial Biotransformation [16] | Bacterial Biotransformation [17] | Bacterial Biotransformation [18] | Bacterial Biotransformation [19] | Bacterial Biotransformation [20] | other results
CO[C@H]1C[C@@H]2CC[C@@H](C)[C@@](O)(O2)C(=O)C(=O)N2CCCC[C@H]2C(=O)O[C@H]([C@H](C)C[C@@H]2CC[C@@H](O)[C@H](OC)C2)CC(=O)[C@H](C)/C=C(\C)[C@@H](O)[C@@H](OC)C(=O)[C@H](C)C[C@H](C)/C=C/C=C/C=C/1C [SIROLIMUS] | Compound metabolized | Compound NOT metabolized | Compound NOT metabolized | Compound NOT metabolized | Compound NOT metabolized | Compound metabolized | Compound metabolized | Compound metabolized | Compound metabolized | Compound NOT metabolized | Compound metabolized | Compound metabolized | Compound NOT metabolized | Compound metabolized | Compound metabolized | Compound metabolized | Compound NOT metabolized | Compound NOT metabolized | Compound metabolized | Compound NOT metabolized | Bacterial Biotransformation [21]: Compound NOT metabolized; Bacterial Biotransformation [22]: Compound NOT metabolized; Bacterial Biotransformation [23]: Compound NOT metabolized; Bacterial Biotransformation [24]: Compound metabolized; Bacterial Biotransformation [25]: Compound NOT metabolized; Bacterial Biotransformation [26]: Compound NOT metabolized; Bacterial Biotransformation [27]: Compound metabolized; Bacterial Biotransformation [28]: Compound metabolized; Bacterial Biotransformation [29]: Compound NOT metabolized; Bacterial Biotransformation [30]: Compound NOT metabolized
C=CC[C@@H]1/C=C(\C)C[C@H](C)C[C@H](OC)[C@H]2O[C@@](O)(C(=O)C(=O)N3CCCC[C@H]3C(=O)O[C@H](/C(C)=C/[C@@H]3CC[C@@H](O)[C@H](OC)C3)[C@H](C)[C@@H](O)CC1=O)[C@H](C)C[C@@H]2OC.O [TACROLIMUS] | Compound metabolized | Compound NOT metabolized | Compound NOT metabolized | Compound NOT metabolized | Compound NOT metabolized | Compound metabolized | Compound NOT metabolized | Compound NOT metabolized | Compound metabolized | Compound NOT metabolized | Compound metabolized | Compound metabolized | Compound NOT metabolized | Compound NOT metabolized | Compound metabolized | Compound metabolized | Compound NOT metabolized | Compound NOT metabolized | Compound metabolized | Compound NOT metabolized | Bacterial Biotransformation [21]: Compound NOT metabolized; Bacterial Biotransformation [22]: Compound NOT metabolized; Bacterial Biotransformation [23]: Compound NOT metabolized; Bacterial Biotransformation [24]: Compound metabolized; Bacterial Biotransformation [25]: Compound NOT metabolized; Bacterial Biotransformation [26]: Compound NOT metabolized; Bacterial Biotransformation [27]: Compound NOT metabolized; Bacterial Biotransformation [28]: Compound metabolized; Bacterial Biotransformation [29]: Compound NOT metabolized; Bacterial Biotransformation [30]: Compound NOT metabolized
